The text below walks through data of patent publication US9707155B2, “Delamination resistant pharmaceutical glass containers containing active pharmaceutical ingredients” (Corning Incorporated, priority 2013, dated 2017).

Series [1] is described as follows: Stability after storage conditions. Particulars: under the chosen conditions. The series is classed as physicochemical.
Another series concerns blood glucose. Briefly: Action profile in dogs (blood glucose as percentage of initial level). The series is classed as in vivo. Particulars: blood glucose at 1 h, 2 h, 3 h, 5 h, 7h. Here is the method: An action profile of Lyxumia and/or Lyxumia and Lantus (in combination) after subjection to the storage conditions described in Example 6 is carried out by comparing insulin glargine in dogs with human insulin-Arg^B31-Arg^B32-OH and basal H insulin as an NPH (neutral protamine Hagedorn) composition containing about 10 μg of Zn^2+.
Blood glucose is measured as a percentage of the initial level at the following time points: 1 h, 2 h, 3 h, 5 h, 7h.

For series [2] the following is noted: in vivo; cited from earlier work.
In series [3] the test system is patients with acute coronary syndromes. Particulars: compared to unfractionated heparin and eptifibatide; cited from earlier work.
For series [4] the following is noted: cited from earlier work.
A further series relates to tumor cell lines. Particulars: cited from earlier work.
The next series relates to tumor xenografts (WM9). As to the kind of experiment: Melanoma xenografts (WM9) in nude mice. The series is classed as in vivo. To be noted: 5 days treatment, versus untreated mice. As to the method: Tumor cells (5×10^6) are injected into the bilateral flanks of female […] nude mice (6-8 weeks of age). The tumors are measured with calipers using the formula: V=[…], where V is the volume, L is the largest diameter, and I is the perpendicular diameter of the tumor. When the volume of the tumor nodules reaches 100-150 mm^3, mice are randomly assigned to control or treatment groups (6-9 mice/group).
Therapeutic treatment with a combination of SAR2405550/BSI-201 and the alkylating agent TMZ was initiated when tumor xenografts (WM9) in nude mice reach 100 mm^3 in volume and treatment was continued for 5 days. In specific instances, the tumor volume is measured for assessment of therapeutic effect.

The next series addresses T1, human IL-6R (Homo sapiens, UniProt P08887).
T1 construct: expressed in transfected cells; host or cells: COS-7 cells
T1 sequence (P08887 20-468): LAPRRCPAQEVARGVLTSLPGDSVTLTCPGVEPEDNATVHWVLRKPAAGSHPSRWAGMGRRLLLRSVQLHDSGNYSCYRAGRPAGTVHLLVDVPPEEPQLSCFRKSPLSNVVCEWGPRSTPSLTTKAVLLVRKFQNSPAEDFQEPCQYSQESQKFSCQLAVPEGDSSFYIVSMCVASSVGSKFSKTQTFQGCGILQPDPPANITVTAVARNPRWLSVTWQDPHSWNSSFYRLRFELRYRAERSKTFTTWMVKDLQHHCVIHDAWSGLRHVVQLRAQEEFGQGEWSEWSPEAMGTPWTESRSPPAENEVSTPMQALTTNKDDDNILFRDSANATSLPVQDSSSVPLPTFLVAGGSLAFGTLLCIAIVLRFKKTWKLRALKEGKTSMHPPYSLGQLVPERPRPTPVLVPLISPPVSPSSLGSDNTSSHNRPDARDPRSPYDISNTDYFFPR
As to the kind of experiment: Binding to COS-7 cells transfected with human IL-6R (fluorescent intensity). The class given is cell-based. Here is the method: COS-7 cells (1×10^6) are inoculated into 10 mL of the medium on a 10 cm dish. Next day, the old medium is replaced with 20 mL of new medium per dish. After 3.42 mL of Opti-MEM (Invitrogen, Carlsbad, Calif., USA) is placed in a polystyrene tube, 180 μL of Trans-IT LTI reagent (Takara Bio, Shiga, Japan) is added and mixed well. The mixture (3.6 mL) is left at room temperature for 15 min. After 60 μg of human IL-6R expression vector hIL-6R/pcDNA3.1 (+) or control (empty) vector pcDNA3.1 (+) (Invitrogen) is added to 5.4 mL of Opti-MEM and mixed well with the above mixture, the resulting solution (9 mL) is allowed to stand at room temperature for 15 min, divided in 3 mL aliquots on three dishes, and incubated at 37 8 C under 5% CO2 for 3 days.

Another series has as its system BAF-h130 cells. Briefly: IL-6 signaling mediated by sIL-6R, BAF-h130 proliferation ([3H]-thymidine uptake). The class given is cell-based, murine. Particulars: IL-6 100 ng/mL, sIL-6R 500 ng/mL, 4 days. As to the method:
BAF-h130 cell is a human gp130-transfected murine pro-B cell, BAF-B03. BAF-h130 cells (1×10^4) are cultured with IL-6 (100 ng/mL) (Genzyme-techne, Minneapolis, Minn., USA), sIL-6R (500 ng/mL) or sarilumab (0.01-100 Ag/mL) at 37° C. under 5% CO2 for 4 days in 96-well flat-bottomed plates. The culture is performed in quadruplicate. [^3H]-thymidine (10 μL/well, 3.7 MBq/mL) (Amercham Pharmacia Biotech, Piscataway, N.J., USA) is added to each well 5 h before the completion of culture. After incubation, the amount of [^3H]-thymidine uptake into cells is determined with a scintillation counter (1450 MicroBeta) (Wallace Oy, Turku, Finland).
BaF-h130 cells could grow by the co-addition of IL-6 (100 ng/ml) and sIL-6R (500 ng/mL), but not by IL-6 or sIL-6R alone. […] Sarilumab suppresses the IL-6/sIL-6R complex-induced proliferation of human gp130-transfected cell, BAF-h130.

Series [5] has as its system IL-6-dependent myeloma cell line, KPMM2. As to the kind of experiment: IL-6 signaling mediated by mIL-6R, KPMM2 growth. The class given is cell-based. As to the method:
IL-6-dependent myeloma cell line, KPMM2 (1×10^5 cells/mL) are cultured with IL-6 (0-100 ng/mL) and sarilumab (0-100 μg/mL) in a CO2 incubator for 4 days in a 96-well plate. After incubation, the amount of [^3H]-thymidine uptake into cells is determined with a scintillation counter.

The subject of series [6] is patients with active rheumatoid arthritis. To be noted: week 12, subcutaneous, relative to placebo, patients receiving methotrexate; cited from earlier work.

In the case of “21^A-Gly-30^Ba-L-Arg-30^Bb-L-Arg-human insulin [Gly^A21-Human Insulin-Arg^B31-Arg^B32-OH]”, the stability entry in series [1] was “stable for a long period of time”. Also, in the series with blood glucose, the basal action profile result is “same advantageous basal profile as human insulin-Arg^B31-Arg^B32-OH”.
Take `COC(=O)[C@H](Cc1cccc(C(=N)N)c1)[C@@H](C)NC(=O)c1ccc(-c2cc[n+]([O-])cc2)cc1` (mixture of isomers) [Otamixaban, Methyl(2R,3R)-2-{3-[amino(imino)methyl]benzyl}-3-{[4-(1-oxidopyridin-4-yl)benzoyl]amino}butanoate]: the half-life in series [2] is around 30 min. In addition, the “combined end point of death or myocardial infarction” value in series [3] was “significant reduction”.
As for `NC(=O)c1ccc(I)c([N+](=O)[O-])c1` [Iniparib, 4-iodo-3-nitrobenzamide], the solubility entry in series [4] is recorded as “soluble”. Also, in the series with tumor cell lines, the cell cycle arrest entry is on record as “inducing cell cycle arrest in the G2/M phase”, the “potentiation of DNA damaging modalities” value is reported as “potentiating the cell cycle effects of DNA damaging modalities” and the γ-H2AX induction entry is “inducing γ-H2AX”.
For `Cn1nnc2c(C(N)=O)ncn2c1=O` [TMZ], the tumor growth result with tumor xenografts (WM9) is “No significant differences in tumor growth”.

B1: Sarilumab: fully human monoclonal antibody that selectively targets the interleukin-6 receptor (IL-6R) (antibody, chains of the INN, looked up, V domains shown)
VH: EVQLVESGGGLVQPGRSLRLSCAASRFTFDDYAMHWVRQAPGKGLEWVSGISWNSGRIGYADSVKGRFTISRDNAENSLFLQMNGLRAEDTALYYCAKGRDSFDIWGQGTMVTVSS
VL: DIQMTQSPSSVSASVGDRVTITCRASQGISSWLAWYQQKPGKAPKLLIYGASSLESGVPSRFSGSGSGTDFTLTISSLQPEDFASYYCQQANSFPYTFGQGTKLEIK
For B1, the “fluorescent intensity in COS-7 cells expressing human IL-6R” value with human IL-6R (IL-6R transfectant) is “increases the fluorescent intensity”. In addition, the “fluorescent intensity in COS-7 mock cells” value in the series with human IL-6R (control vector pcDNA3.1 (+) transfectant) was “not in COS-7 mock cells”. The “proliferation of BAF-h130 cells induced by IL-6/sIL-6R complex” value in the series on BAF-h130 cells was “suppresses the proliferation of BAF-h130 cells induced by the complex of IL-6 and sIL-6R in a concentration-dependent manner”. The “growth of KPMM2” value in [5] is recorded as “suppress the growth”. Moreover, the ACR20 result in series [6] was “significant and clinically relevant improvements”.
